According to patent publication US20170218449A1, “ANALYTICAL METHODS AND ARRAYS FOR USE IN THE SAME” (SENZAGEN AB, priority 2010, published 2017):
≈ marks a conversion by molar mass, not a printed value. Read-outs that look alike come from different tables or passages of the source.

Assays:
MUTZ-3 cells [1] = test: transcriptional profiling (Affymetrix Human Gene 1.0 ST arrays) with PCA of chemically stimulated cells; type: cell-based
Method: The genomic expression arrays were used to test 20 sensitizers and 20 non-sensitizers, in triplicates, and vehicle controls such as DMSO and distilled water, the latter in twelve replicates.
The human myeloid leukaemia-derived cell line MUTZ-3 (DSMZ, Braunschweig, Germany) was maintained in a-MEM (Thermo Scientific Hyclone, Logan, Utah) supplemented with 20% (volume/volume) fetal calf serum (Invitrogen, Carlsbad, Calif.) and 40 ng/ml rhGM-CSF (Bayer HealthCare Pharmaceuticals, Seattle, Wash.), as described [10]. Prior to each experiment, the cells were immunophenotyped using flow cytometry as a quality control. Cells were seeded in 6-well plates at 200.000 cells/ml. Stock solutions of each compound was prepared in either DMSO or distilled water, and were subsequently diluted so the in-well concentrations corresponded to the Rv90 value, and in-well concentrations of DMSO were 0.1%. Cells were incubated for 24h at 37° C. and 5% CO2. Thereafter, cells were harvested and analysed with flow cytometry. In parallel, harvested cells were lysed in TRIzol reagent (Invitrogen) and stored at −20° C. until RNA extraction. Stimulations with chemicals were performed in three individual experiments, so that triplicates samples were obtained.
RNA isolation and gene chip hybridization was performed as described [22]. […] The preparation of labeled sense DNA was performed according to Affymetrix GeneChip Whole Transcript (WT) Sense Target Labeling Assay (100 ng Total RNA Labeling Protocol) using the recommended kits and controls (Affymetrix, Santa Clara, Calif.). Hybridization, washing and scanning of the Human Gene 1.0 ST Arrays were performed according to the manufacturer's protocol (Affymetrix).
The microarray data were normalised and quality checked with the RMA algorithm, using Affymetrix Expression Console (Affymetrix).

[2] = test system: draining lymph nodes of mice; settings: cited from earlier work
MUTZ-3 cells [3] = test: cytotoxicity by Propidium Iodide, relative viability (Rv90)
Method: A panel of chemicals consisting of 20 sensitizers and 20 non-sensitizers were used for cell stimulations. […] All chemicals were from Sigma-Aldrich, St. Louis, Mo., USA. Compounds were dissolved in either Dimethyl sulfoxide (DMSO) or distilled water. Prior to stimulations, the cytotoxicity of all compounds were monitored, using Propidium Iodide (PI) (BD Biosciences, San Diego, Calif.) using protocol provided by the manufacturer. The relative viability of stimulated cells was calculated as
For toxic compounds, the concentration yielding 90% relative viability (Rv90) was used. For untoxic compounds, a concentration of 500 μM was used when possible. For non-toxic compounds that were insoluble at 500 μM in medium, the highest soluble concentration was used. For compounds dissolved in DMSO, the in-well concentration was 0.1% DMSO.

CD86 = CD86 cell surface expression by flow cytometry after chemical stimulation; type: cell-based, human; settings: 24 h stimulation, frequency of CD86-positive cells, paired Student's t test
Method: Cell surface expression levels of CD86 were monitored after stimulation with chemicals for 24 h. FIG. 2A). Chemical-induced upregulation of CD86, in terms of changes in frequency of positive cells, were determined by flow cytometry, as exemplified by the comparison of 2-aminophenol-stimulated cells (right dotplot) and unstimulated controls (left dotplot). Results are shown from one representative experiment out of three. Gates were set to exclude debris and dead cells, and quadrants were established by comparing with relevant isotype controls. FIG. 2B) Compilation of frequencies of CD86-positive cells after 24 h of stimulation. Statistical analysis was performed using paired Student's t test. *p<0.05, # p<0.01. NA, not analysed.
CD86 is the most extensively studied biomarker for sensitization to date, in cell-systems such as monocyte derived dendritic cells (MoDCs) or dendritic cell-like human cell lines and their progenitors, such as THP-1, U-937 and KG-1. Thus, as a reference, cell surface expression of CD86 was measured with flow cytometry after 24h stimulation with 20 sensitizers and 20 non-sensitizers, as well as with vehicle controls (Table 1). […]. […] Consequently, CD86 cannot classify skin sensitizers, using a cell based system such as MUTZ-3.
The human myeloid leukaemia-derived cell line MUTZ-3 (DSMZ, Braunschweig, Germany) was maintained in a-MEM (Thermo Scientific Hyclone, Logan, Utah) supplemented with 20% (volume/volume) fetal calf serum (Invitrogen, Carlsbad, Calif.) and 40 ng/ml rhGM-CSF (Bayer HealthCare Pharmaceuticals, Seattle, Wash.), as described. Prior to each experiment, the cells were immunophenotyped using flow cytometry as a quality control. Cells were seeded in 6-well plates at 200.000 cells/ml. Stock solutions of each compound was prepared in either DMSO or distilled water, and were subsequently diluted so the in-well concentrations corresponded to the Rv90 value, and in-well concentrations of DMSO were 0.1%. Cells were incubated for 24h at 37° C. and 5% CO2. Thereafter, cells were harvested and analysed with flow cytometry. In parallel, harvested cells were lysed in TRIzol reagent (Invitrogen) and stored at −20° C. until RNA extraction. Stimulations with chemicals were performed in three individual experiments, so that triplicates samples were obtained.
All cell surface staining and washing steps was performed in PBS containing 1% BSA (w/v). Cells were incubated with specific mouse mAbs for 15 min at 4° C. The following mAbs were used for flow cytometry: FITC-conjugated CD1a (DakoCytomation, Glostrup, Denmark), CD34, CD86, and HLA-DR (BD Biosciences), PE-conjugated CD14 (DakoCytomation), CD54 and CD80 (BD Biosciences). Mouse IgG1, conjugated to FITC or PE were used as isotype controls and PI was used to assess cell viability (BD Biosciences). FACSDiva software was used for data acquisition with FACSCanto II instrument (BD Bioscience). 10,000 events were acquired and gates were set based on light scatter properties to exclude debris and nonviable cells. Further data analysis was performed using FCS Express V3 (De Novo Software, Los Angeles, Calif.).

physchem = settings: plasma or biological fluid, kinetic from dmso stock
human [4] = settings: in vivo; cited from earlier work
human [5] = settings: in vivo; cited from earlier work; remark: listed apart in the source
Max solubility in medium = settings: vehicle DMSO or water
[6] = 24 h stimulation, one or more replicate
[7] = sensitizing potency category based on murine LLNA classification
[8] = concentration yielding 90% relative viability, PI staining

SMILES | PCA grouping, 1010 transcripts (sensitizing vs. non-sensitizing ANOVA), FIG. 3B (MUTZ-3 cells [1]; [6]) | PCA grouping, 1137 genes (comparing the different stimulations), FIG. 3D (MUTZ-3 cells [1]; 24 h stimulation, triplicates) | Potency [2, 7] | CD86 cell surface expression (CD86) | also measured
CCCCCCCC/C=C\CCCCCCCC(=O)OCCOCC(OCCO)C1OCC(OCCO)C1OCCO (centres unmarked) [Tween 80] | tend to group with the sensitizers |  |  |  | 
O=[N+]([O-])c1ccc(Cl)c([N+](=O)[O-])c1 [2,4-Dinitrochlorobenzene] |  | replicates that group together, separate from the negative group | Extreme [15] | significantly up-regulated | Rv90 (MUTZ-3 cells [3]; [8]): 4 µM
[K+].[K+].[O]=[Cr](=[O])([O-])[O][Cr](=[O])(=[O])[O-] [Potassium dichromate] |  |  | Extreme [14] |  | PCA grouping, 1137 genes (comparing the different stimulations), FIG. 3D (MUTZ-3 cells [1]): discrete profile
CC=Cc1ccc(O)c(OC)c1 [Isoeugenol] | group together with the control group |  | Moderate [28] |  | Rv90 (MUTZ-3 cells [3]; human): 300 µM
CCO/C=C1\N=C(c2ccccc2)OC1=O [Oxazolone] |  |  |  |  | Potency ([2]; mouse, in vivo): Extreme [15]
Sc1nc2ccccc2s1 [2-Mercaptobenzothiazole] |  | replicates that group together, separate from the negative group | Moderate [27] | significantly up-regulated | 
CCCCCCC(C=O)=Cc1ccccc1 [Hexylcinnamic aldehyde] | group together with the control group |  | Moderate [15] |  | 
Oc1ccccc1 [Phenol] |  |  |  |  | PCA grouping, 1010 transcripts (sensitizing vs. non-sensitizing ANOVA), FIG. 3B (MUTZ-3 cells [1]): tend to group with the sensitizers
CCCCCCCC(=O)O [Octanoic acid] | tend to group with the sensitizers |  |  |  | 
Oc1cccc(O)c1 [Resorcinol] | group together with the control group | replicates that group together, separate from the negative group | Moderate [29] | significantly up-regulated | 
CC1(C)S[C@@H]2[C@H](NC(=O)Cc3ccccc3)C(=O)N2[C@H]1C(=O)O [Penicillin G] | group together with the control group |  | Weak [28] |  | 
C=CC(=O)OCCO [2-Hydroxyethyl acrylate] |  | replicates that group together, separate from the negative group |  | significantly up-regulated | Rv90 (MUTZ-3 cells [3]; [8]): 100 µM
Nc1ccc(N)cc1 [p-Phenylendiamine] |  | replicates that group together, separate from the negative group | Strong [28] | significantly up-regulated | solubility (physchem): 566 µM (≈ 61.2 µg/mL); Rv90 (MUTZ-3 cells [3]; [8]): 75 µM
O=CC=Cc1ccccc1 [Cinnamaldehyde] |  |  |  | significantly up-regulated | Rv90 (MUTZ-3 cells [3]; human): 120 µM; HPTA (human [4]): +; HMT (human [5]): +
O=CC=O [Glyoxal] | group together with the control group |  |  |  | Potency ([2]; mouse, in vivo): Moderate [27]; Rv90 (MUTZ-3 cells [3]; [8]): 300 µM
Nc1ccc(N)c([N+](=O)[O-])c1 [2-nitro-1,4-Phenylendiamine] |  | replicates that group together, separate from the negative group |  | significantly up-regulated | 
Nc1ccccc1O [2-Aminophenol] |  |  | Strong [27] | significantly up-regulated | PCA grouping, 1137 genes (comparing the different stimulations), FIG. 3D (MUTZ-3 cells [1]): replicates that group together, separate from the negative group; Rv90 (MUTZ-3 cells [3]; [8]): 100 µM
O=Cc1ccccc1 [Benzaldehyde] |  |  |  |  | Max solubility (Max solubility in medium): 250 µM
OC/C=C/c1ccccc1 [Cinnamic alcohol] |  | replicates that group together, separate from the negative group | Weak [27] |  | 
C=O [Formaldehyde] |  |  |  |  | Potency ([2]; mouse, in vivo): Strong [15]; Rv90 (MUTZ-3 cells [3]; human): 80 µM
CCCCCCCCCCCCOS(=O)(=O)[O-].[Na+] [Sodium dodecyl sulphate] |  |  |  |  | Rv90 (MUTZ-3 cells [3]; [8]): 200 µM
C=CCc1ccc(O)c(OC)c1 [Eugenol] | group together with the control group |  | Weak [28] |  | Rv90 (MUTZ-3 cells [3]; human): 300 µM
NCCN [Ethylendiamine] | group together with the control group |  | Moderate [14] |  | 
